Experimental data taken from US20190275169A1, “TARGETED IMMUNOSUPPRESSION FOR OPTOGENETIC INTERVENTION” (Circuit Therapeutics, Inc., priority 2018, published 2019).

System: light responsive excitatory opsin protein ChR2 delivered virally via AAV and expressed in the sensory nerve of a mouse
Experiment: Light-responsiveness over time after AAV delivery of ChR2 to the sensory nerve, immunosuppressant paradigms versus saline (FIG. 2A-2I)
Format: in vivo
Conditions: drug paradigm and schedule as in FIG. 1; light approx. 450 nm
From the text: Referring to FIG. 1, various drug groupings are listed (2) which have been known to modulate the immune system, including cyclosporine (“Cyc”), cyclosporine+mycophenolate mofetil (“MMF”), dexamethasone, rapamycin in various dosage configurations, rapamycin+dexamethasone+FK506 (also known as “tacrolimus”; an immunosuppressive drug used mainly after organ transplant to lower rejection risk), and metformin (a medication utilized in treating diabetes and polycystic ovary syndrome which also has been inculcated in immune suppression). Each of these listed drugs has previously been approved by the U.S. F.D.A. for different indications, and the depicted drug schedules associated with each grouping feature dosing and scheduling information that previously has been published in different treatment paradigms, such as for cardiovascular or transplant rejection scenarios.
Thus, referring again to the table (2) of FIG. 1, for cyclosporine, a subcutaneous (or “subQ” or “SQ”) regime is listed, wherein cyclosporine is injected subcutaneously for one week prior to injection of genetic material, and then every two days after, as is a cyclosporine+MMF combination (noted as “Cyc+MMF”) which has been used with success, for example, in clinical trials with adeno associated virus (“AAV”) gene therapies; the term “I.P.” or “i.p.” refers to intraperitoneal injection. […]

CN(C)C(=N)N=C(N)N [metformin]
effect on proportion of animals still exhibiting light-responsiveness versus saline: does not seem to have a significant impact
